3 molecules from patent US20230346952A1, “CANNABINOID GLYCOSIDE PRODRUGS AND METHODS OF SYNTHESIS” (priority 2015, published 2023) can be followed below.

A word on the inhibition: it is the relative decrease from the control value, in per cent.

The conditions of data set [1]: 1,000 mg/kg mixed glycosides by oral gavage; 6 hours; HPLC.
Data set [2] deals with T1, safety screen panel of human pharmacological targets (Homo sapiens, UniProt P10275).
T1 sequence (P10275 1-920): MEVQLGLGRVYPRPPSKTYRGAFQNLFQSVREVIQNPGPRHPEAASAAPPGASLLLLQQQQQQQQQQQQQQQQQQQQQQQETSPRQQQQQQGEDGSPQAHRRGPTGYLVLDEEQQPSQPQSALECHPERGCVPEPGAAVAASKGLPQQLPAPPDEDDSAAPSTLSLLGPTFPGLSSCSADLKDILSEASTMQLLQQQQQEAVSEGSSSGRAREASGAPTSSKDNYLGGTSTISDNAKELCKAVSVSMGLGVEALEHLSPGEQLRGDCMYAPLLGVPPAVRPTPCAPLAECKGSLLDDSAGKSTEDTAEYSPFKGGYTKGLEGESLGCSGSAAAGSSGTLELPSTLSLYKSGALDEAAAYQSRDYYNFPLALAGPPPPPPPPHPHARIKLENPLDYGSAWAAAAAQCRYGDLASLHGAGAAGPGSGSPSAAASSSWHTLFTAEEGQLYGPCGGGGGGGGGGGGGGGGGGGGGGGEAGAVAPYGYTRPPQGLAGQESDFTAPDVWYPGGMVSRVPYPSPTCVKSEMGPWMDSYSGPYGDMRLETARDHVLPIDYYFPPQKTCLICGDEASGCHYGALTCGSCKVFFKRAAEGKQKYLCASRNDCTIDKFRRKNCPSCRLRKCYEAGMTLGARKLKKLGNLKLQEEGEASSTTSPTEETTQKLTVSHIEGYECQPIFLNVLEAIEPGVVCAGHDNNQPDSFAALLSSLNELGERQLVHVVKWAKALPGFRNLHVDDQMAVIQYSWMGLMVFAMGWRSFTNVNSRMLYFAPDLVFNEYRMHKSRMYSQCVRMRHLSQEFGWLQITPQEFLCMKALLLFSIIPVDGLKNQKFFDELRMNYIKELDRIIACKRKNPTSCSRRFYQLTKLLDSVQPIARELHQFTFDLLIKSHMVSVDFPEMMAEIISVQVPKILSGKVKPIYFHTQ
In words: biochemical. The note with it: read-out: percent inhibition: AR (h) (agonist radioligand).

Data set [3] has as its target T2, safety screen panel of human pharmacological targets (Homo sapiens, UniProt P08172).
T2 sequence (P08172 1-466): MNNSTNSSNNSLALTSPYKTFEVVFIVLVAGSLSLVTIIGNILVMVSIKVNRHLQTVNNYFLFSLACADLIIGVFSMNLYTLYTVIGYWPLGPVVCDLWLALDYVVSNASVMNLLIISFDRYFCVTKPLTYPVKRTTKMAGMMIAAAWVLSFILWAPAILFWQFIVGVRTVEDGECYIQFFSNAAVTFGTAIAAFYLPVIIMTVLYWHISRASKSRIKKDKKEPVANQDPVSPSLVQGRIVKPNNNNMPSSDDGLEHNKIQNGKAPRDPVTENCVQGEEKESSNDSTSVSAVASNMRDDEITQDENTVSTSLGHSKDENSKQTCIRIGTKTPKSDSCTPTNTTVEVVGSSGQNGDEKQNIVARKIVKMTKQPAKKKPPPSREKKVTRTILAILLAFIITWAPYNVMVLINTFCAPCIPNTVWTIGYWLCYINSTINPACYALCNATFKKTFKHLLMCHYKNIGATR
In words: biochemical. To be noted: read-out: percent inhibition: M2 (h) (antagonist radioligand).

The target of data set [4] is safety screen panel of human pharmacological targets (Homo sapiens, UniProt P23975). Briefly: biochemical. The note with it: read-out: percent inhibition: norepinephrine transporter (h) (antagonist radioligand).
Data set [5] deals with safety screen panel of human pharmacological targets (Homo sapiens, UniProt P22303). Briefly: biochemical. The note with it: read-out: percent inhibition: acetylcholinesterase (h).
Data set [6] concerns the target T3, safety screen panel of human pharmacological targets (Homo sapiens, UniProt P08908).
T3 sequence (P08908 1-422): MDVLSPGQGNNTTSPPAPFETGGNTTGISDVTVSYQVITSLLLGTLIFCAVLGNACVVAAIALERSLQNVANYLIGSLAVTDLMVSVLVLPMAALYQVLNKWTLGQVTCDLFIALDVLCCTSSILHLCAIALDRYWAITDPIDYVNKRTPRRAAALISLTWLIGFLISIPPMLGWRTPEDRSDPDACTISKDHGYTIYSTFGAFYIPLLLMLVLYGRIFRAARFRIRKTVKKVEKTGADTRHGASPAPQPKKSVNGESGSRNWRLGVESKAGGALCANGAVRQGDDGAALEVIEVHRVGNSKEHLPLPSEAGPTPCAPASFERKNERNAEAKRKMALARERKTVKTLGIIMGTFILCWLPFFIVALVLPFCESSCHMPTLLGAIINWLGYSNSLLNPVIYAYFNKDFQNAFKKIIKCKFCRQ
In words: biochemical. To be noted: read-out: percent inhibition: 5-HT1A(h) {agonist radiogilgand).

In data set [7] the target is safety screen panel of human pharmacological targets (Homo sapiens, UniProt P28223). Briefly: biochemical. To be noted: read-out: percent inhibition: 5-HT2A (h) (agonist radioligand).
Data set [8] addresses safety screen panel of human pharmacological targets (Homo sapiens, UniProt P37288). Briefly: biochemical. To be noted: read-out: percent inhibition: V1a (h) (agonist radioligand).
Data set [9] addresses safety screen panel of human pharmacological targets (Homo sapiens, UniProt P29274). Briefly: biochemical. The note with it: read-out: percent inhibition: A2A (h) (agonist radioligand).
Data set [10] addresses safety screen panel of human pharmacological targets (Homo sapiens, UniProt Q01959). In words: biochemical. The note with it: read-out: percent inhibition: dopamine transporter (b) (antagonist radioligand).

SMILES strings stand for the structures.

Chain of safety screen panel of human pharmacological targets (Homo sapiens, UniProt P29274) (P29274 whole entry): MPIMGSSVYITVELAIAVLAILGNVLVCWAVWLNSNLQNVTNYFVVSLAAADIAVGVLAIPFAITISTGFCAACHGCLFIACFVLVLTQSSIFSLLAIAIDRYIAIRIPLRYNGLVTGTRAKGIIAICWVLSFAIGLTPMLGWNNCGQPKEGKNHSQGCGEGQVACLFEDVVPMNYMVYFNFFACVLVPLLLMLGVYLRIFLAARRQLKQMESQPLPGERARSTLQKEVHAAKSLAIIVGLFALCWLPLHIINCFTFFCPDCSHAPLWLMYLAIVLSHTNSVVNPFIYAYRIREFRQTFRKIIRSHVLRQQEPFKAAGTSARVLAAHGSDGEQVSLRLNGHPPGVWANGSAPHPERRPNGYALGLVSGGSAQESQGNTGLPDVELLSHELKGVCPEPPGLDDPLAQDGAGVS
Chain of safety screen panel of human pharmacological targets (Homo sapiens, UniProt P37288) (P37288 whole entry): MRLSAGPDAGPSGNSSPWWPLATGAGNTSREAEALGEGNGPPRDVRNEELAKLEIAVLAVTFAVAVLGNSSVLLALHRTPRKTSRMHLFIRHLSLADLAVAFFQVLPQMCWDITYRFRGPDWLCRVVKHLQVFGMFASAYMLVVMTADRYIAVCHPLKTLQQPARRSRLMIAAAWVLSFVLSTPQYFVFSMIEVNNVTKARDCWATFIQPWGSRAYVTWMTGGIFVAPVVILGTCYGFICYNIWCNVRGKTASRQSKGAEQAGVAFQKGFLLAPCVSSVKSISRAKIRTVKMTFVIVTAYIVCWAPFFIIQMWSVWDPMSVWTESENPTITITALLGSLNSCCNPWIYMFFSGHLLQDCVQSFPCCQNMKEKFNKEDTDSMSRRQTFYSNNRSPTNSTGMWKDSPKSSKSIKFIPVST
Chain of safety screen panel of human pharmacological targets (Homo sapiens, UniProt P22303) (P22303 32-614): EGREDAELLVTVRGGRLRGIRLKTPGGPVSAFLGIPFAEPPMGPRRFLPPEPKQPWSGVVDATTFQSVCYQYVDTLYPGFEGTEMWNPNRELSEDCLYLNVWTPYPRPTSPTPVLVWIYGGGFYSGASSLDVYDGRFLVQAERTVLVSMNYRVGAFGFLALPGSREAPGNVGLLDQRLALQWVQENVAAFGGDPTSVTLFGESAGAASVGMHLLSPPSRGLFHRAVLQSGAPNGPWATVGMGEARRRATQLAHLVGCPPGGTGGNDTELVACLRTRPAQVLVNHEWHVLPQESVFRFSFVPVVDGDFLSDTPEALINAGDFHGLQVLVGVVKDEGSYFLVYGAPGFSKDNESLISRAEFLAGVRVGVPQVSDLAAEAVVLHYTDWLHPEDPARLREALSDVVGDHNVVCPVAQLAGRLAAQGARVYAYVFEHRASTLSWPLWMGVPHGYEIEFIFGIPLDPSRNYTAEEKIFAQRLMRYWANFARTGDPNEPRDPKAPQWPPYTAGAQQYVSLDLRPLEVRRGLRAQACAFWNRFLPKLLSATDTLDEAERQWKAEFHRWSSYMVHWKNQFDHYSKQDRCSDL
Chain of safety screen panel of human pharmacological targets (Homo sapiens, UniProt P28223) (P28223 whole entry): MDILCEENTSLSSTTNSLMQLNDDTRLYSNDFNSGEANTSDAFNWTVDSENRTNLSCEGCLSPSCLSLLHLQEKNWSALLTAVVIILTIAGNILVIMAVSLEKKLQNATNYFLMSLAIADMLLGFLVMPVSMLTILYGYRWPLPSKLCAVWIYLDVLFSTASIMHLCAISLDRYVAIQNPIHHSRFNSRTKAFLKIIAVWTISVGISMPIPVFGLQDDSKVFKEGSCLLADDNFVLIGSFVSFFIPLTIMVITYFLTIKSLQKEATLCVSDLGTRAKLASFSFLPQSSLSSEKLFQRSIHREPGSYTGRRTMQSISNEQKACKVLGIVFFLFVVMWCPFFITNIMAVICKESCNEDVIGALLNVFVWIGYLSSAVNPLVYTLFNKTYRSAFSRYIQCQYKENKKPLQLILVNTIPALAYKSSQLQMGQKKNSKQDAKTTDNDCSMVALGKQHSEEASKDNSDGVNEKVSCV
Chain of safety screen panel of human pharmacological targets (Homo sapiens, UniProt Q01959) (Q01959 whole entry): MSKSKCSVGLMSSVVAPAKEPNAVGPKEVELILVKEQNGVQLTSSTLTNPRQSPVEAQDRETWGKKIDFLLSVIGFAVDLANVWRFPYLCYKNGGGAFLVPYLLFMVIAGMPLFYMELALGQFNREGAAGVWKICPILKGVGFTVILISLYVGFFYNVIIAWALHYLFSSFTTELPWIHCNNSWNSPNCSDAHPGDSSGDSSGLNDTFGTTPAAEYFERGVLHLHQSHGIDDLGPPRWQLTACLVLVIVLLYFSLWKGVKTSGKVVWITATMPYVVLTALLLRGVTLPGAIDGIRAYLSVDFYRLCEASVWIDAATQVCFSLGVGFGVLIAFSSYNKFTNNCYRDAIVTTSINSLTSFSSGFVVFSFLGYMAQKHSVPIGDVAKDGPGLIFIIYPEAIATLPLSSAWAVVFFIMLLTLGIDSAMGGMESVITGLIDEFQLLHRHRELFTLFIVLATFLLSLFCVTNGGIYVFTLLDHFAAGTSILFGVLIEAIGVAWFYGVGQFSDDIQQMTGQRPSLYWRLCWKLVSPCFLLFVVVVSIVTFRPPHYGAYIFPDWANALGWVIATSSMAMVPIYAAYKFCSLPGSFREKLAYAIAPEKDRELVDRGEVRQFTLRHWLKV
Chain of safety screen panel of human pharmacological targets (Homo sapiens, UniProt P23975) (P23975 whole entry): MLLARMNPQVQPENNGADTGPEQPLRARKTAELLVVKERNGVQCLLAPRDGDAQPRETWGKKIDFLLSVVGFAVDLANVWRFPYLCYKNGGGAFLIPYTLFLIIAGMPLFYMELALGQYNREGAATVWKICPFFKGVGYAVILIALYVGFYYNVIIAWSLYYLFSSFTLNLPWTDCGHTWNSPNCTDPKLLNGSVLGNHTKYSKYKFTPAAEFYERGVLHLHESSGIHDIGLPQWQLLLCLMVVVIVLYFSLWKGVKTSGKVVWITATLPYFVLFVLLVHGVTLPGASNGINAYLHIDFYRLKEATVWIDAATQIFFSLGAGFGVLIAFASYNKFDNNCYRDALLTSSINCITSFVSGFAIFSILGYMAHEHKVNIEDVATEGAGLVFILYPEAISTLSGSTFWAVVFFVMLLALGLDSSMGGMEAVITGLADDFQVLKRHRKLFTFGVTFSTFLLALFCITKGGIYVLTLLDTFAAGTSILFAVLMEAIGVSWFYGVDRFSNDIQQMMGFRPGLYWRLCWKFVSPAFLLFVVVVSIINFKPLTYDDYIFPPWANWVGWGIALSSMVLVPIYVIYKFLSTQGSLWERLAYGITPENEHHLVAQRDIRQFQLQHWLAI

In the case of `CCCCCc1cc(O)c2c(c1)OC(C)(C)[C@@H]1CCC(C)=C[C@@H]21` [VB301, Δ9-Terahydrocannabinol, reference compound], in data set [1], the “change of share of total THC-glycosides in large intestine extracts versus small intestine extracts” value is “appreciable amounts”. The “change of share of total THC-glycosides in small intestine extracts versus administered mixture” value in data set [1] is on record as “below the limit of detection”. Besides, the inhibition at 10 µM is 13% in data set [2]; 21% in data set [3]; 90% in data set [4]; 30% in data set [5]; -27% in data set [6]; 92% in [7]. For the same molecule, the figures for the inhibition at 10 µM in data set [8], in data set [9] and in data set [10] were -2%, 63% and 101%, respectively.

For `CCCCCc1cc(O[C@@H]2O[C@H](CO)[C@@H](O)[C@H](O)[C@H]2O)c2c(c1)OC(C)(C)[C@@H]1CCC(C)=C[C@@H]21` [VB302, Δ9THC-1-O-glucopyranoside], the “change of share of total THC-glycosides in large intestine extracts versus small intestine extracts” value in data set [1] is reported as “further increases”. Moreover, the “change of share of total THC-glycosides in small intestine extracts versus administered mixture” value in data set [1] is “increases”. Besides, the inhibition at 10 µM was 4% in [2]; 2% in data set [3]; 16% in data set [4]; -1% in [5]; 6% in [6]; 11% in [7]. The values for the inhibition at 10 µM in data set [8], in [9] and in [10] were 8%, -11% and 18%, respectively.

As for `CCCCCc1cc(O[C@@H]2O[C@H](CO[C@@H]3O[C@H](CO)[C@@H](O)[C@H](O)[C@H]3O)[C@@H](O[C@@H]3O[C@H](CO)[C@@H](O)[C@H](O)[C@H]3O)[C@H](O)[C@H]2O)c2c(c1)OC(C)(C)[C@@H]1CCC(C)=C[C@@H]21` [VB311], the “change of share of total THC-glycosides in large intestine extracts versus small intestine extracts” value in data set [1] is on record as “further decreases”. Further, in data set [1], the “change of share of total THC-glycosides in small intestine extracts versus administered mixture” value is recorded as “sharp decrease”. Also, the inhibition at 10 µM in data set [2] was 10%; in data set [3], -4%; in [4], 20%; in data set [5], 1%; in data set [6] it was -6%; in data set [7], 4%. Also, the inhibition at 10 µM in data set [8] was 7%; in [9], -4%; in [10], 28%.
